From US8088886B2, “Lipoprotein associated phospholipase A2, inhibitors thereof and use of the same in diagnosis and therapy” (Smith-Kline Beecham P.L.C., priority 1993, dated 2012)

The compounds below were run against T1, Lp-PLA2 (Homo sapiens, UniProt Q13093) (assay: Screen for Lp-PLA2 inhibition (turnover of artificial substrate (A), absorbance at 405 nm)). Conditions: 37° C., pH 7.4, 10 min pre-incubation, 20 μM substrate (A).
T1 construct: from tissue; host or cells: LDL from plasma (apheresis)
T1 sequence (Q13093 22-441): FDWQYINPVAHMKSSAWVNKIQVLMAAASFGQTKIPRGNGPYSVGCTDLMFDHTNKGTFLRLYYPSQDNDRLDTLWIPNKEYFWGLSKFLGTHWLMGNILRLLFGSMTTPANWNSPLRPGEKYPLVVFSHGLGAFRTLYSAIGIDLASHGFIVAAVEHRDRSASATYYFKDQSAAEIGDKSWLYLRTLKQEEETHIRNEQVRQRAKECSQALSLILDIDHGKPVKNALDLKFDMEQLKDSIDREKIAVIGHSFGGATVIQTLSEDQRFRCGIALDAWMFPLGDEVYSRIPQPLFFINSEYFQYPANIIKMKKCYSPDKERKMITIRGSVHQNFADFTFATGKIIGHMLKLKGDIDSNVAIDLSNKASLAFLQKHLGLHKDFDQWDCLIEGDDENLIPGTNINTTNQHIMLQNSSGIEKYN
Assay type: biochemical
Protocol: 1. Screen for Lp-PLA2 Inhibition.
Enzyme activity was determined by measuring the rate of turnover of the artificial substrate (A) at 37° C. in 50 mM HEPES (N-2-hydroxyethylpiperazine-N′-2-ethanesulphonic acid) buffer containing 150 mM NaCl, pH 7.4.
Assays were performed in 96 well titre plates.
Lp-PLA2 was pre-incubated at 37° C. with vehicle or test compound for 10 min in a total volume of 180 μl. The reaction was then initiated by the addition of 20 μl 10× substrate (A) to give a final substrate concentration of 20 μM. The reaction was followed at 405 nm for 20 minutes using a plate reader with automatic mixing. The rate of reaction was measured as the rate of change of absorbance.
Compound CCCCCCCCCCCCCCCCOCC(COP(=O)([O-])OCC[N+](C)(C)C)NC(C)=O (centres unmarked) [Compound 1] has an IC50 of 800 nM.
CCCCCCCCCCCCCCCCCCOCC(COP(=O)([O-])OCC[N+](C)(C)C)NC(C)=O (centres unmarked) [Compound 2] gave an IC50 of 3500 nM.
CCCCCCCCCCCCCCCCCCOCC(COP(=O)([O-])OCC[S+](C)C)NC(C)=O (centres unmarked) [Compound 3] gave an IC50 of 1000 nM.
CCCCCCCCCCCCCCCCCCOCC(COP(=O)([O-])OCC[n+]1ccn(C)c1)NC(C)=O (centres unmarked) [Compound 8] showed an IC50 of 550 nM.
In the case of CCCCCCCCCCCCCCCCCCOCC(COP(=O)([O-])OCC[N+](C)(C)C)NC(=O)C(F)(F)F (centres unmarked) [Compound 9], the IC50 is reported as 2500 nM.
